Assay results reported in patent publication US20260137703A1, “2-AMINO-PYRIDO[2,3-D]PYRIMIDIN-7(8H)-ONE AND 7-AMINO-1-PYRIMIDO[4,5-D]PYRIMIDIN-2(1 H)-ONE DERIVATIVES AS EGFR INHIBITORS FOR THE TREATMENT OF CANCER” (Cancer Research Technology Limited, priority 2022, published 2026).

Target: CtermHisTag-mEGFR Wild type (Homo sapiens, UniProt P00533)
Experiment: biochemical

Sequence of CtermHisTag-mEGFR Wild type (P00533 whole entry): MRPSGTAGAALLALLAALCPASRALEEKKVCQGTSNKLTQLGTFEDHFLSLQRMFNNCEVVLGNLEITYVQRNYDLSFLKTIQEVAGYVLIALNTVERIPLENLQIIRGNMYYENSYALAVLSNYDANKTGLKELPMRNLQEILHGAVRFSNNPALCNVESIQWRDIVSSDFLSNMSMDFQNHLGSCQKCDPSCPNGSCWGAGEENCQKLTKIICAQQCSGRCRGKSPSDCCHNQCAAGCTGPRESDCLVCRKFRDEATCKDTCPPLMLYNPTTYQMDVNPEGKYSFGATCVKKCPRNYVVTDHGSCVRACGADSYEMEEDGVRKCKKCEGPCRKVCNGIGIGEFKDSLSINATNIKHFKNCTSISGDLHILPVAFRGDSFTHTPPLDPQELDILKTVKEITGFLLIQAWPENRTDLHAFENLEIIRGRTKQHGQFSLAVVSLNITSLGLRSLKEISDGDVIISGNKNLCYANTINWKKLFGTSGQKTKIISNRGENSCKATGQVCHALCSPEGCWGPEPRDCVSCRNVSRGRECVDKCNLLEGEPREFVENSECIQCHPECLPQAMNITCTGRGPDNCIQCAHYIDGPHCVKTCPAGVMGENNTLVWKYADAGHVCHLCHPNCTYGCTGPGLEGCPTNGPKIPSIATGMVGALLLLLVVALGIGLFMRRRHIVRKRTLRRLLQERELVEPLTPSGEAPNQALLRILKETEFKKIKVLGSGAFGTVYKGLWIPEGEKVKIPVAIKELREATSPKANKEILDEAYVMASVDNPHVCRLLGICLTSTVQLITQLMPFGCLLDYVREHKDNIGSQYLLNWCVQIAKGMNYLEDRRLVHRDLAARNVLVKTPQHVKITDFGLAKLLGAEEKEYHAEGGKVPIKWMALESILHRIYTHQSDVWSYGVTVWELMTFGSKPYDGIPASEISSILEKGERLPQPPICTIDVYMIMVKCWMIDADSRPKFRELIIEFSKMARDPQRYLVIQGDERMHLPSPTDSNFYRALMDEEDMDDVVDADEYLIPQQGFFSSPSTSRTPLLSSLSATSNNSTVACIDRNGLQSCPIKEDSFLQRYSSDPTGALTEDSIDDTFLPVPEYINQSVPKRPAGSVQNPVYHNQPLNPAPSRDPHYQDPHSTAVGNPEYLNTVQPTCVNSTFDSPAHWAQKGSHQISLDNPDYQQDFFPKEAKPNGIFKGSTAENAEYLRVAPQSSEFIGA

Row | IC50 [µM] | SMILES
1 | > 10 | C=CC(=O)Nc1cc(=O)n(-c2ccccc2)c2nc(Nc3ccccc3OC)ncc12 [Example 2, N-(2-((2-Methoxyphenyl)amino)-7-oxo-8-phenyl-7,8-dihydropyrido[2,3-d]pyrimidin-5-yl)acrylamide]
2 | < 1 | C#Cc1nc(=O)n(-c2ccccc2)c2nc(Nc3ccccc3OC)ncc12 [Example 4, 4-Ethynyl-7-[(2-methoxyphenyl)amino]-1-phenylpyrimido[4,5-d][1,3]diazin-2-one]
3 | 1 to 10 | C#Cc1cc(=O)n(-c2ccccc2)c2nc(Nc3ccccc3)ncc12 [Example 5]
4 | < 1 | C#Cc1cc(=O)n(-c2ccccc2)c2nc(Nc3ccc(OCCN(C)C)cc3)ncc12 [Example 13, 2-({4-[2-(Dimethylamino)ethoxy]phenyl}amino)-5-ethynyl-8-phenylpyrido[2,3-d]pyrimidin-7-one]
5 | < 1 | C#Cc1cc(=O)n(-c2ccccc2)c2nc(Nc3ccc(N4CCOCC4)cc3OC)ncc12 [Example 35, 5-Ethynyl-2-((2-methoxy-4-morpholinophenyl)amino)-8-phenylpyrido[2,3-d]pyrimidin-7(8H)-one]
6 | > 10 | C#Cc1cc(=O)n(-c2ccccc2)c2nc(Nc3ccccc3CO)ncc12 [Example 41, 5-Ethynyl-2-{[2-(hydroxymethyl)phenyl]amino}-8-phenylpyrido[2,3-d]pyrimidin-7-one]
7 | 1 to 10 | C#Cc1cc(=O)n(C)c2nc(Nc3ccc(N(C)CCN(C)C)cc3OC)ncc12 [Example 42, 2-[(4-{[2-(Dimethylamino)ethyl](methyl)amino}-2-methoxyphenyl)amino]-5-ethynyl-8-methylpyrido[2,3-d]pyrimidin-7-one]
8 | > 10 | C#Cc1cc(=O)n(C)c2nc(Nc3ccccc3OC)ncc12 [Example 48, 5-Ethynyl-2-[(2-methoxyphenyl)amino]-8-methylpyrido[2,3-d]pyrimidin-7-one]
9 | > 10 | C#Cc1cc(=O)n(-c2cccc(NC(C)=O)c2)c2nc(Nc3ccccc3OC)ncc12 [Example 56, N-(3-(5-Ethynyl-2-((2-methoxyphenyl)amino)-7-oxopyrido[2,3-d]pyrimidin-8(7H)-yl)phenyl)acetamide]
10 | > 10 | C#Cc1cc(=O)n(-c2cccc(NS(C)(=O)=O)c2)c2nc(Nc3ccccc3OC)ncc12 [Example 57, N-(3-(5-Ethynyl-2-((2-methoxyphenyl)amino)-7-oxopyrido[2,3-d]pyrimidin-8(7H)-yl)phenyl)methanesulfonamide]
11 | > 10 | C#Cc1cc(=O)n(-c2cccc(NS(=O)(=O)C3CC3)c2)c2nc(Nc3ccccc3OC)ncc12 [Example 58, N-(3-(5-Ethynyl-2-((2-methoxyphenyl)amino)-7-oxopyrido[2,3-d]pyrimidin-8(7H)-yl)phenyl)cyclopropanesulfonamide]
12 | > 10 | C#Cc1cc(=O)n(C2CCCC2)c2nc(Nc3ccccc3OC)ncc12 [Example 74, 8-Cyclopentyl-5-ethynyl-2-((2-methoxyphenyl)amino)pyrido[2,3-d]pyrimidin-7(8H)-one]
13 | > 10 | C#Cc1cc(=O)n(-c2ccc(OC)cc2OC)c2nc(Nc3ccccc3OC)ncc12 [Example 75, 8-(2,4-Dimethoxyphenyl)-5-ethynyl-2-[(2-methoxyphenyl)amino]pyrido[2,3-d]pyrimidin-7-one]
14 | > 10 | C#Cc1cc(=O)n(C(C)C)c2nc(Nc3ccccc3OC)ncc12 [Example 83, 5-Ethynyl-8-isopropyl-2-[(2-methoxyphenyl)amino]pyrido[2,3-d]pyrimidin-7-one]
15 | > 10 | C#Cc1cc(=O)n(-c2ccc(OC)cc2)c2nc(Nc3ccccc3OC)ncc12 [Example 84, 5-ethynyl-8-(4-methoxyphenyl)-2-[(2-methoxyphenyl)amino]pyrido[2,3-d]pyrimidin-7-one]
16 | 1 to 10 | C#Cc1cc(=O)n(-c2cccc(NC(=O)C=C)c2)c2nc(Nc3ccccc3OC)ncc12 [Example 85, N-(3-(5-Ethynyl-2-((2-methoxyphenyl)amino)-7-oxopyrido[2,3-d]pyrimidin-8(7H)-yl)phenyl)acrylamide]
17 | 1 to 10 | C#Cc1c(-c2ccccc2)c(=O)n(C)c2nc(Nc3ccc(N(C)CCN(C)C)cc3OC)ncc12 [Example 121, 2-[(4-[[2-(dimethylamino)ethyl](methyl)amino]-2-methoxyphenyl)amino]-5-ethynyl-8-methyl-6-phenylpyrido[2,3-d]pyrimidin-7-one]
18 | < 1 | C#Cc1c(-c2ccccc2Cl)c(=O)n(C)c2nc(Nc3ccc(N(C)CCN(C)C)cc3OC)ncc12 [Example 122, 6-(2-chlorophenyl)-2-[(4-[[2-(dimethylamino)ethyl](methyl)amino]-2-methoxyphenyl)amino]-5-ethynyl-8-methylpyrido[2,3-d]pyrimidin-7-one]
19 | > 10 | C#Cc1c(-c2ccccc2Cl)c(=O)n(C)c2nc(Nc3ccccc3OC)ncc12 [Example 123, 6-(2-chlorophenyl)-5-ethynyl-2-[(2-methoxyphenyl)amino]-8-methylpyrido[2,3-d]pyrimidin-7-one]

Row | IC50 [µM] | SMILES
20 | > 10 | C#Cc1c(-c2ccccc2Cl)c(=O)n(C)c2nc(Nc3ccccc3)ncc12 [Example 124, 6-(2-chlorophenyl)-5-ethynyl-8-methyl-2-(phenylamino)pyrido[2,3-d]pyrimidin-7-one]
21 | > 10 | C#Cc1c(-c2ccccc2Cl)c(=O)n(C)c2nc(NCCCCN3CCN(C)CC3)ncc12 [Example 130, 6-(2-chlorophenyl)-5-ethynyl-8-methyl-2-{[4-(4-methylpiperazin-1-yl)butyl]amino}pyrido[2,3-d]pyrimidin-7-one]
22 | < 1 | C#Cc1c(-c2ccccc2Cl)c(=O)n(C)c2nc(Nc3ccc(N(C)CCN(C)C)c(C)c3)ncc12 [Example 133, 6-(2-chlorophenyl)-2-[(4-{[2-(dimethylamino)ethyl](methyl)amino}-3-methylphenyl)amino]-5-ethynyl-8-methylpyrido[2,3-d]pyrimidin-7-one]
23 | 1 to 10 | C#Cc1c(-c2ccccc2OC)c(=O)n(C)c2nc(Nc3ccc(N(C)CCN(C)C)cc3)ncc12 [Example 138, 2-[(4-{[2-(dimethylamino)ethyl](methyl)amino}phenyl)amino]-5-ethynyl-6-(2-methoxyphenyl)-8-methylpyrido [2,3-d]pyrimidin-7-one]
24 | 1 to 10 | C#Cc1c(Cc2ccccc2)c(=O)n(C)c2nc(Nc3ccc(N(C)CCN(C)C)cc3OC)ncc12 [Example 140, 6-benzyl-2-[(4-[[2-(dimethylamino)ethyl](methyl)amino]-2-methoxyphenyl)amino]-5-ethynyl-8-methylpyrido[2,3-d]pyrimidin-7-one]
25 | > 10 | C#Cc1c(C(=O)NC)c(=O)n(-c2ccccc2)c2nc(Nc3ccccc3OC)ncc12 [Example 141, 5-ethynyl-2-[(2-methoxyphenyl)amino]-N-methyl-7-oxo-8-phenylpyrido[2,3-d]pyrimidine-6-carboxamide]
26 | > 10 | C#Cc1c(N)c(=O)n(-c2ccccc2)c2nc(Nc3ccccc3OC)ncc12 [Example 142, 6-amino-5-ethynyl-2-[(2-methoxyphenyl)amino]-8-phenylpyrido[2,3-d]pyrimidin-7-one]
27 | > 10 | C#Cc1c(NC(C)=O)c(=O)n(-c2ccccc2)c2nc(Nc3ccccc3OC)ncc12 [Example 143, N-[5-ethynyl-2-[(2-methoxyphenyl)amino]-7-oxo-8-phenylpyrido[2,3-d]pyrimidin-6-yl]acetamide]
28 | > 10 | C#Cc1c(C#N)c(=O)n(-c2ccccc2)c2nc(Nc3ccccc3OC)ncc12 [Example 145, 5-ethynyl-2-[(2-methoxyphenyl)amino]-7-oxo-8-phenylpyrido[2,3-d]pyrimidine-6-carbonitrile]
29 | > 10 | C#Cc1c(C(=O)N(C)C)c(=O)n(-c2ccccc2)c2nc(Nc3ccccc3OC)ncc12 [Example 146, 5-ethynyl-2-[(2-methoxyphenyl)amino]-N,N-dimethyl-7-oxo-8-phenylpyrido[2,3-d]pyrimidine-6-carboxamide]
30 | > 10 | C#Cc1c(N(C)C)c(=O)n(-c2ccccc2)c2nc(Nc3ccccc3OC)ncc12 [Example 147, 6-(dimethylamino)-5-ethynyl-2-[(2-methoxyphenyl)amino]-8-phenylpyrido[2,3-d]pyrimidin-7-one]
31 | > 10 | C=Cc1cc(=O)n(-c2ccccc2)c2nc(Nc3ccccc3OC)ncc12 [Example 152, 5-ethenyl-2-[(2-methoxyphenyl)amino]-8-phenylpyrido[2,3-d]pyrimidin-7-one]
32 | > 10 | C=Cc1cc(=O)n(-c2ccccc2OC)c2nc(Nc3ccccc3OC)ncc12 [Example 153, 8-(2-Methoxyphenyl)-2-((2-methoxyphenyl)amino)-5-vinylpyrido[2,3-d]pyrimidin-7(8H)-one]
33 | > 10 | C=Cc1cc(=O)n(-c2ccc(OC)cc2OC)c2nc(Nc3ccccc3OC)ncc12 [Example 154, 8-(2,4-dimethoxyphenyl)-5-ethenyl-2-[(2-methoxyphenyl)amino]pyrido[2,3-d]pyrimidin-7-one]
34 | 1 to 10 | C=Cc1c(C#N)c(=O)n(-c2ccccc2)c2nc(Nc3ccccc3OC)ncc12 [Example 159, 5-ethenyl-2-[(2-methoxyphenyl)amino]-7-oxo-8-phenylpyrido[2,3-d]pyrimidine-6-carbonitrile]
35 | 1 to 10 | C=Cc1c(C#N)c(=O)n(-c2ccc(OC)cc2OC)c2nc(Nc3ccccc3OC)ncc12 [Example 160, 8-(2,4-dimethoxyphenyl)-2-((2-methoxyphenyl)amino)-7-oxo-5-vinyl-7,8-dihydropyrido[2,3-d]pyrimidine-6-carbonitrile]
36 | > 10 | C=Cc1c(-c2ccccc2Cl)c(=O)n(C)c2nc(Nc3ccccc3OC)ncc12 [Example 161, 6-(2-chlorophenyl)-5-ethenyl-2-[(2-methoxyphenyl)amino]-8-methylpyrido[2,3-d]pyrimidin-7-one]
37 | > 10 | C=Cc1c(-c2ccccc2)c(=O)n(C)c2nc(Nc3ccccc3OC)ncc12 [Example 162, 5-ethenyl-2-[(2-methoxyphenyl)amino]-8-methyl-6-phenylpyrido[2,3-d]pyrimidin-7-one]
38 | > 10 | C=Cc1c(-c2c(Cl)cccc2Cl)c(=O)n(C)c2nc(Nc3ccccc3OC)ncc12 [Example 163, 6-(2,6-dichlorophenyl)-5-ethenyl-2-[(2-methoxyphenyl)amino]-8-methylpyrido[2,3-]pyrimidin-7-one]
